Eleven molecules from patent publication US6906078B2, “Method of using (H+/K+) ATPase inhibitors as antiviral agents” (Pharmacia Corporation, priority 1994, dated 2005) can be followed below.

The term inhibition denotes the relative decrease from the control value, in per cent. Broadly, the melting point is the temperature of the solid-liquid transition.

Where two headings read alike, the source gives them in different places.

The target in data set [1] is HCMV protease (assemblin) (Human cytomegalovirus, UniProt P16753). Briefly: Enzymatic assay for HCMV protease (assemblin) inhibitors, fluorogenic substrate DE2. The format is biochemical. To be noted: for inhibition at 100 µM: read-out: Assemblin Inhibition % Inhibition at 100 μm. On the procedure:
The enzymatic assay for assemblin inhibitors compared the rate of product appearance between a control reaction containing no inhibitor and one that contained a known concentration of a potential inhibitor. There were two phases to the enzyme reaction. The first was a period of incubation of enzyme in the presence of inhibitor, but in the absence of the substrate. This incubation allowed for the inhibitor to bind and potentially block the enzyme from hydrolyzing the substrate. The second phase was started by adding the substrate and measuring the rate of product production.
The construction also encoded six additional histidine residues at the amino terminus of the protease. These additional histidine residues provided an affinity ligand by which it was purified using nickel-nitriloacetic acid-agarose (Qiagen).
The purified protease was stored as a 1-3 mg/ml stock solution in 50 mM sodium phosphate buffer, pH 7.4; 300 mM sodium chloride; 100 mM imidazole; 50% (v/v) glycerol. This stock was diluted with assay buffer to 4.8 μg/ml. A 100 μL aliquot of this solution was used in the enzyme reaction.
A specific substrate was synthesized based on the cleavage specificity of HCMV protease at the “maturation site” of the assembly protein (F. Liu and B. Roizman, J. Viral. 65, 5149 (1991), and A. R. Welch, et al, J. Viral., 65 4091 (1991)). The assembly protein maturation site has the sequence . . . AGVVNA*SCRLATA . . . (SEQ ID NO. 1); the substrate used was dabcycl-Abu-[…]-edans (SEQ ID NO. 2) (DE2). […] However, when the two chromophores are separated because of hydrolysis of the peptide moiety by HCMV protease the edans fluorescence was no longer quenched and an increase in fluorescence was realized. DE2 was stored as a stock solution at 160 μg/ml in dimethyl sulfoxide. This was diluted 10-fold with assay buffer to give a concentration of 16 μg/ml just before use. An aliquot of 50 μL was used in the reaction.
An assay Buffer (10 mM sodium phosphate buffer, pH 7.4; 150 mM sodium acetate; 0.1% CHAPS; and 20% (v/v) glycerol) was used to dilute stock solutions of enzyme and substrate.
Inhibitors were dissolved in dimethyl sulfoxide at 16-times the final assay concentration. A 10 μL aliquot of this inhibitor solution was used in the reaction.
A 100 μL aliquot of enzyme solution (4.8 μg/ml) was mixed with 10 μL of inhibitor solution in a 96-well plate cell and incubated at 22° C. for 30 minutes. Control reactions contained 10 μL of dimethylsulfoxide instead of inhibitor solution. After the preincubation was completed, 50 μL of substrate solution was added and the fluorescence recorded every 5 minutes for a period of 30 minutes. All reactions were run in triplicate with the exception of the uninhibited control reaction which was replicated 6-fold. The change in fluorescence was recorded over time and an average rate for each set of 3 reactions was calculated. Fluorescence assays were subject to spurious various due to factors such as dust in the 96-well plate; such results were omitted from the calculation of relative rates.

For a further data set, the system named is gastric acid secretion. Put plainly: Inhibition of gastric acid secretion in gastric fistula beagle dogs (histamine-stimulated). It is filed as in vivo. To be noted: for inhibition in vivo at 3 mg/kg: Canis lupus familiaris, 4 h, read-out: Gastric-Fistula Beagle % Inhibition (3 mg/kg dose). An excerpt:
Adult female beagle dogs weighing 6 to 11 kilograms obtained from Laboratory Research Enterprises (Kalamazoo, Mich.) or from Hazelton Research Animals (Cumberland, Va.) were surgically implanted with a simple Thomas-type gastric cannula. After recovery from surgery, the dogs were trained to stand quietly, fully conscious, in Pavlov-type dog restraining slings and were acclimated to intravenous infusion of histamine dihydrochloride. During the course of these studies, no dog was used more than once a week. All dogs were deprived of food, but not water, for 18 hours prior to each assay. Each dog was initially infused with 0.15 M sodium chloride solution at a constant rate of […]. The volume of gastric secretions, collected in plastic bottles affixed to the cannula, were measured to the nearest 0.1 ml at 30 minute intervals. One of the following protocols was followed, depending on the route chosen for administration of test compound.
Intravenous dosing: Following a 30-minute basal secretion period, test compounds were administered intravenously (i.v.). At the end of an additional 30 minute period, the saline infusion was replaced with histamine dihydrochloride in saline administered at a rate 15 mcg per kilogram of body weight per hour. Histamine stimulation was maintained for a maximum of four hours during which time gastric secretions were collected every 30 minutes. The pH and titratable acidity were determined for samples from each collection period.
Intragastric dosing: Following a 30-minute basal secretion period, he collection bottles were removed, dosing plugs here inserted, and test compounds were administered intragastrically (i.g.) At the end of a 30-minute drug absorption period, the stomachs were emptied, the collection bottles were reattached, and collections were resumed at 30-minute intervals. Simultaneously, the saline infusion was replaced with a continuous intravenous infusion of histamine dihydrochloride in saline administered for four hours at a rate 15 mcg per kilogram of body weight per hour.
Intraduodenal dosing: Dogs were also equipped with duodenal cannulas for intraduodenal (i.d.) administration of test compounds. Dosing was otherwise performed as described for intragastric dosing.
Data from each protocol were analyzed for three gastric sample variables: volume of gastric juice, acid concentration, and total acid output. Percent inhibition for each four-hour experimental period was determined for each parameter by comparison with 3 to 4 controls in which […]. Estimates of ED50's were determined from dose response curves.

In the next data set the target is T1, (H+/K+)-ATPase (Canis lupus familiaris, UniProt P50996).
T1 construct: The microsomes retained at the 15%-30% sucrose interface, after centrifugation at 250,000×g for sixty minutes, were used as the source of (H^+/K^+)-ATPase; from tissue; host or cells: gastric glandular mucosa of mongrel dogs (microsomal fraction, lyophilized)
Put plainly: Inhibition of (H+/K+)-ATPase from canine gastric mucosa (inorganic phosphate release). The format is biochemical. On the procedure:
Mongrel dogs weighing 15 to 25 kilograms were fasted for twenty-four hours, with water provided ad libitum. The animals were anesthetized with pentobarbital and the stomachs were removed. Subsequent tissue manipulations and subcellular fractionations were performed at 0° C. to 4° C. After the stomachs were cut open and rinsed with tap water, the antral and cardiac regions were removed and the remaining tissue was rinsed three times in saline. The glandular mucosa was removed mechanically, chopped finely in a medium containing 10 mM Tris hydrochloride (pH 7.4) and 250 mM sucrose, and homogenized. The homogenate was centrifuged at 20,000×g for twenty minutes and the pellet discarded. The supernatant was then centrifuged at 150,000×g for ninety minutes and the supernatant discarded. The pellet was resuspended in the Tris-HCl/sucrose medium by homogenization. Part (2 ml) of the resultant microsomal suspension was layered onto a step gradient consisting of 9 ml of 15% sucrose above 12 ml of 30% sucrose, each sucrose solution being buffered with 10 mM Tris hydrochloride (pH 7.4) containing 0.01% sodium azide. The microsomes retained at the 15%-30% sucrose interface, after centrifugation at 250,000×g for sixty minutes, were used as the source of (H^+/K^+)-ATPase. Microsomal preparations were lyophilized, a process that assured potassium ion permiability, and stored at −10° C. until used.
(H^+/K^+)-ATPase activity for each test compound was determined, in duplicate, by measuring the release of inorganic phosphate, which was assayed according to the method of J. ChandraRajan and L. Klein, Anal. Biochem., 72 , 407 (1976). The (H^+/K^+)-ATPase assay medium consisted of 20 mm mes-Tris (pH 6.0), 5 mM magnesium chloride, 25 mM sucrose, and 4 mM Tris-ATP with or without 20 mM potassium chloride in a total volume of 2 ml. Microsomal suspensions (20 to 60 mcl, containing about 25 mcg protein) were added to the assay medium, without Tris-ATP, and then preincubated with a test compound for thirty minutes at 37° C. The assay was initiated by adding Tris-ATP and the mixture was incubated another thirty minutes at 37° C. A 200-mcl aliquot of the assay mixture was then added to 1.4 ml of a solution consisting of 0.1 M sodium acetate (pH 4.0) and 10% sodium dodecylsulfate, followed by the addition of 200 mcl each of 1% ammonium molybdate and 1% ascorbic acid. At least fifteen minutes later, the optical absorbance at 870 nm (which was proportional to inorganic phosphate concentration up to 100 nmoles per tube, as determined by a standard curve) was obtained. Enzyme activity was linear with incubation time.
(H^+/K^+)-ATPase activity is represented by the difference between the measured activities in the presence of potassium-ion (K^+-stimulated) and in the absence of potassium ion (basal).

Where [2] appears, read: at 100 μm, 30 min preincubation at 22° C.
The mark [3] stands for this setting: intraduodenal, 3 mg/kg i.d., histamine-stimulated, four-hour period.
Setting [4] is: canine gastric mucosa microsomes, pH 6.0, 30 min preincubation at 37° C., read-out: (H+/K+)-ATPase IC50.
Setting [5] is: iv, 3 mg/kg i.v., histamine-stimulated, four-hour period.

Chain of HCMV protease (assemblin) (P16753 1-256): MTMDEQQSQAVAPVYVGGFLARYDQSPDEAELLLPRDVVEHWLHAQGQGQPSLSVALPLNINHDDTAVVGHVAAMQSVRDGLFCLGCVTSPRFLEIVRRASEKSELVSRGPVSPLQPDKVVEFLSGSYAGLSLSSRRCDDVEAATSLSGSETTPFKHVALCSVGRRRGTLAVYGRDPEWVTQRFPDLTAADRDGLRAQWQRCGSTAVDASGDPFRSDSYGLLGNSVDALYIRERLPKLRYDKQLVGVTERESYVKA
T1 sequence (P50996 whole entry): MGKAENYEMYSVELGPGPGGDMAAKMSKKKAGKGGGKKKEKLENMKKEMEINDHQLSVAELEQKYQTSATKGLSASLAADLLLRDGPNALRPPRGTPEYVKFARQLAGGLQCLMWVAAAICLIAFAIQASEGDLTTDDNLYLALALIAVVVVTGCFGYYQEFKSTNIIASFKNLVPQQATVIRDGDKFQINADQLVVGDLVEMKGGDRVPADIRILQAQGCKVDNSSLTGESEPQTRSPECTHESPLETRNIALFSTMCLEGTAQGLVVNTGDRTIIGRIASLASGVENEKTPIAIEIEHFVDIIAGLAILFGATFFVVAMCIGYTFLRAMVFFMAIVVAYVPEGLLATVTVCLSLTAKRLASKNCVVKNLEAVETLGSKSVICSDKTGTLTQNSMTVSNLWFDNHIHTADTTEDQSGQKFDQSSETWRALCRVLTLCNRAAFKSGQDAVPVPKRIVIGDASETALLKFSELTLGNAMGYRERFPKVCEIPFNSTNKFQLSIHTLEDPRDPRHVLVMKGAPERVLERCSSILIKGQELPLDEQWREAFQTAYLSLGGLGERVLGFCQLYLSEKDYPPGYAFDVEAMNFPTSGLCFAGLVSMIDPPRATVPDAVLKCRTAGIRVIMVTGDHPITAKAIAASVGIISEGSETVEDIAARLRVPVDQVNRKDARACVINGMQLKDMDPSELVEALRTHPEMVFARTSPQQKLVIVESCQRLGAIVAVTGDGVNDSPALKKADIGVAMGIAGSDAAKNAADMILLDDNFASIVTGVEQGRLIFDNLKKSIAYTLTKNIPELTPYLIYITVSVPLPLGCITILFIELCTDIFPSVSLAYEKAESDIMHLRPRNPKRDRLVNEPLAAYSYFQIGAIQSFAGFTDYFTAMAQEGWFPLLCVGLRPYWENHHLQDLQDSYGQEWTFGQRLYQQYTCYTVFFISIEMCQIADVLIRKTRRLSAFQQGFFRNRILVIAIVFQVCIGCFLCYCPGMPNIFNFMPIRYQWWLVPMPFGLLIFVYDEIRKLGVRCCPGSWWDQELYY
T1 sequence (P33704 whole entry partner): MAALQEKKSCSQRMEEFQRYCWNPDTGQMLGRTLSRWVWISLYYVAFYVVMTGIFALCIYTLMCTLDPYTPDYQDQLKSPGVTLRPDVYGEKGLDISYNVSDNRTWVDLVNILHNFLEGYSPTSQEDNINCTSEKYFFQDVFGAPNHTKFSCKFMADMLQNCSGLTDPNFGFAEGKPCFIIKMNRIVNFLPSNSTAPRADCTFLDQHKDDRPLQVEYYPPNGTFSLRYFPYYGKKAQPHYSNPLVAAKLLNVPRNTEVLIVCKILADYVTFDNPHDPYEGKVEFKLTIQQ

`COc1ccc2[nH]c([S+]([O-])Cc3ccccc3N)nc2c1` (stereo not drawn) [Example 12, 2-[[(5-Methoxy-1H-benzimidazol-2-yl)sulfinyl]methyl]benzenamine] had a melting point of 147 to 148 °C. In data set [1] (setting [2]), the inhibition at 100 µM came out at 26%. Also, the inhibition in vivo at 3 mg/kg with gastric acid secretion (setting [3]) is 90%. On (H+/K+)-ATPase (setting [4]), the IC50 was found to be 11 µM.

As to `Cc1cc(Cl)cc(C[S+]([O-])c2nc3ccccc3[nH]2)c1N.Cc1cc(Cl)cc(C[S+]([O-])c2nc3ccccc3[nH]2)c1N.O` (stereo not drawn) [Example 57, 2-[(1H-Benzimidazol-2-ylsulfinyl)methyl]-4-chloro-6-methylbenzenamine hemihydrate], in data set [1] (setting [2]), the “Assemblin Inhibition % Inhibition at 100 μm” value was found to be 66%. The IC50 at (H+/K+)-ATPase (setting [4]) was 60 µM.

Take `Cc1cc2nc([S+]([O-])Cc3ccccc3N)[nH]c2cc1C` (stereo not drawn) [Example 10, 2-[[(5,6-Dimethyl-1H-benzimidazol-2-yl)sulfinyl]methyl]benzenamine ¼ hydrate]: the inhibition at 100 µM in data set [1] (setting [2]) amounted to 43%. Moreover, the inhibition in vivo at 3 mg/kg in the data set on gastric acid secretion (setting [5]) is 44%. Besides, the IC50 at (H+/K+)-ATPase (setting [4]) was found to be 13.5 µM.

With `CCOC(=O)c1ccc(N)c(C[S+]([O-])c2nc3ccccc3[nH]2)c1.CCOC(=O)c1ccc(N)c(C[S+]([O-])c2nc3ccccc3[nH]2)c1.O` (stereo not drawn) [Example 71, Ethyl 4-amino-3-[(1H-benzimidazol-2-ylsulfinyl)methyl]benzoate hemihydrate], the “Assemblin Inhibition % Inhibition at 100 μm” value in data set [1] (setting [2]) amounted to 44%. Besides, the “Gastric-Fistula Beagle % Inhibition (3 mg/kg dose)” value in the data set on gastric acid secretion (3 mg/kg i.d., histamine-stimulated, four-hour period) turned out to be 7 i.d. %. Also, on (H+/K+)-ATPase (setting [4]), the IC50 is > 100 µM.

`COc1c(C)cc(N)c(C[S+]([O-])c2nc3ccccc3[nH]2)c1C` (stereo not drawn) [Example 39, 2-[(1H-Benzimidazol-2-ylsulfinyl)methyl]-4-methoxy-3,5-dimethylbenzenamine] displayed a melting point of 150 to 155 °C. For the same molecule, the inhibition at 100 µM in data set [1] (setting [2]) came to 46%. The inhibition in vivo at 3 mg/kg in the data set on gastric acid secretion (setting [3]) stood at 53%. For the same molecule, the IC50 at (H+/K+)-ATPase (setting [4]) stood at 0.2 µM.

Regarding `CCOC(=O)c1ccc(N)c(C[S+]([O-])c2nc3ccc(OC)cc3[nH]2)c1` (stereo not drawn) [Example 73, Ethyl 4-amino-3-[[(S-methoxy-1H-benzimidazol-2-yl)sulfinyl]methyl]benzoate], the inhibition at 100 µM in data set [1] (setting [2]) amounted to 50%. Moreover, at (H+/K+)-ATPase (setting [4]), the IC50 was > 100 µM.

On to `CNc1ccccc1C[S+]([O-])c1nc2ccccc2[nH]1` (stereo not drawn) [Example 32, 2-[(1H-Benzimidazol-2-ylsulfinyl)methyl]-N-methylbenzenamine monohydrate], for which the inhibition at 100 µM in data set [1] worked out at 52%. In the data set on gastric acid secretion (intraduodenal), the inhibition in vivo at 3 mg/kg stood at 21%. The IC50 on (H+/K+)-ATPase (setting [4]) came out at 0.64 µM.

In turn, `CCOc1ccc2[nH]c([S+]([O-])Cc3ccccc3N)nc2c1` (stereo not drawn) [Example 45, 2-[[(5-Ethoxy-1H-benzimidazol-2-yl)sulfinyl]-methyl]benzenamine] registered a melting point of 154 to 155 °C. Moreover, the inhibition at 100 µM in data set [1] (setting [2]) came to 51%. In addition, the IC50 at (H+/K+)-ATPase (setting [4]) stood at 24 µM.

`COc1cccc(C[S+]([O-])c2nc3ccccc3[nH]2)c1N.COc1cccc(C[S+]([O-])c2nc3ccccc3[nH]2)c1N.O` (stereo not drawn) [Example 22, 2-((1H-Benzimidazol-2-ylsulfinyl)methyl]-6-methoxybenzenamine hemihydrate]: the “Assemblin Inhibition % Inhibition at 100 μm” value in data set [1] (setting [2]) came to 35%. In addition, in the data set with gastric acid secretion (3 mg/kg i.v., histamine-stimulated, four-hour period), the “Gastric-Fistula Beagle % Inhibition (3 mg/kg dose)” value is recorded as 70 i.v. %. For the same molecule, the IC50 at (H+/K+)-ATPase (setting [4]) was 9.3 µM.

As to `CN(C)c1ncccc1C[S+]([O-])c1nc2ccccc2[nH]1` (stereo not drawn) [Example 83, 3-[(1H-Benzimidazol-2-ylsulfinyl)methyl]-N,N-dimethyl-2-pyridinamine ⅓ hydrate], the inhibition at 100 µM in data set [1] (setting [2]) came out at 83%. In the data set with gastric acid secretion (setting [5]), the inhibition in vivo at 3 mg/kg was determined as 15%. Besides, the IC50 against (H+/K+)-ATPase came to 8.6 µM.

Turning to `COc1cc(Cl)c(C)c(C[S+]([O-])c2nc3ccccc3[nH]2)c1N` (stereo not drawn) [Example 59, 2-[(1H-Benzimidazol-2-ylsulfinyl)methyl]-4-chloro-6-methoxy-3-methylbenzenamine], the melting point fell in the range of 163 to 164 °C. Besides, the inhibition at 100 µM in data set [1] (setting [2]) came to 71%. For the same molecule, the IC50 on (H+/K+)-ATPase (setting [4]) worked out at 2.7 µM.
